According to ChEMBL document CHEMBL4371025, “Discovery and evaluation of novel FAAH inhibitors in neuropathic pain model” (Bioorg Med Chem Lett, 2019):
Calls of active or inactive are those of the source. The calls are words filed in the database; no cut-off is given here.

Columns and labels:
[1] = target: T1, Fatty-acid amide hydrolase 1 (Homo sapiens) (UniProt O00519); assay: Reversible inhibition of human transmembrane domain deficient FFAH expressed in Escherichia coli assessed as residual activity at 10 times IC50 using AAMCA as substrate preincubated for 1 hr followed by substrate addition and subsequent 10 fold compound dilution by fluorescence assay relative to control
T1 sequence (whole entry): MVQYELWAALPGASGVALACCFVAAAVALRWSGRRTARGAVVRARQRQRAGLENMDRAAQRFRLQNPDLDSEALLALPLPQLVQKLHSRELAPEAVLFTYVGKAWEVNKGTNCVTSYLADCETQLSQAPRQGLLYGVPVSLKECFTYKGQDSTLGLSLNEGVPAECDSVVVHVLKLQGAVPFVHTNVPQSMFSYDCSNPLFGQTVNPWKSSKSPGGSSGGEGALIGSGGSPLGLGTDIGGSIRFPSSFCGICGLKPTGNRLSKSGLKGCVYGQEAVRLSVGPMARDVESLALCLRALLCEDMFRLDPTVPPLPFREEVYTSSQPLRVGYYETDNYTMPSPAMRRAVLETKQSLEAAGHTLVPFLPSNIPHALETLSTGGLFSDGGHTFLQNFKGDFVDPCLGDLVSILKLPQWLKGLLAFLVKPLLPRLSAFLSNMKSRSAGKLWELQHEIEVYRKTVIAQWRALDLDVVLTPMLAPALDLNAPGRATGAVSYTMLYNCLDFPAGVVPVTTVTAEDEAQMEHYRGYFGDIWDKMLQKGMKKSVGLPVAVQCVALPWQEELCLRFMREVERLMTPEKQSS

[2] = target: T2, Fatty-acid amide hydrolase 1 (Homo sapiens, UniProt O00519); assay: Inhibition of human transmembrane domain deficient FFAH expressed in Escherichia coli using AAMCA as substrate incubated for 1 min measured for 50 mins by fluorescence assay
T2 sequence (O00519 whole entry): T1 sequence (whole entry)

[3] = target: T3, Fatty-acid amide hydrolase 1 (Rattus norvegicus, UniProt P97612); assay: Inhibition of rat FFAH expressed in Escherichia coli using AAMCA as substrate incubated for 1 min measured for 50 mins by fluorescence assay
T3 sequence (P97612 whole entry): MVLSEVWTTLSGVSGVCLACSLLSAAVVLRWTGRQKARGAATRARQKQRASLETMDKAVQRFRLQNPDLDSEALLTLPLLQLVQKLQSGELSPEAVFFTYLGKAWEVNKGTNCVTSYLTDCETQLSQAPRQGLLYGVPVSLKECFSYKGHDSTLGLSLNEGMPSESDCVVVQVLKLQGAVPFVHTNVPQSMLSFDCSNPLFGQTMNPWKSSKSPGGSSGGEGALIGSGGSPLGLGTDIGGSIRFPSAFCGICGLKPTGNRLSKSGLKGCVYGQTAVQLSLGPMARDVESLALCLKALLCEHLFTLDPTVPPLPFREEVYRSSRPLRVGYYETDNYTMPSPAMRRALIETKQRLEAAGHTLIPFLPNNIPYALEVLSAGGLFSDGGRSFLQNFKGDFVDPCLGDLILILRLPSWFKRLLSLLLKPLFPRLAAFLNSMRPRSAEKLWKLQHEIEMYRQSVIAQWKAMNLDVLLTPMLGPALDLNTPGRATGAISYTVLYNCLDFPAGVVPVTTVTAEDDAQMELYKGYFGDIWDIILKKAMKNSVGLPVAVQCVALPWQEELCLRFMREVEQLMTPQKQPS

[4] = Intrinsic metabolic stability in human liver microsomes assessed as metabolic turnover rate per mg protein at 1 uM preincubated for 5 mins followed by NADPH cofactor addition and measured after 30 mins by LC-MS/MS analysis; format: ADME, Microsome; details: 0.5 h
[5] = Intrinsic metabolic stability in rat liver microsomes assessed as metabolic turnover over per mg protein at 1 uM preincubated for 5 mins followed by NADPH cofactor addition and measured after 30 mins by LC-MS/MS analysis; format: ADME, Microsome; details: 0.5 h
[6] = target: T4, Fatty-acid amide hydrolase 1 (Rattus norvegicus) (UniProt P97612); assay: Inhibition of rat FFAH expressed in Escherichia coli at 10 uM using AAMCA as substrate incubated for 1 min measured for 50 mins by fluorescence assay relative to control
T4 sequence (whole entry): T3 sequence (P97612 whole entry)

[7] = target: T4, Fatty-acid amide hydrolase 1 (Rattus norvegicus); assay: Inhibition of rat FFAH expressed in Escherichia coli at 100 nM using AAMCA as substrate incubated for 1 min measured for 50 mins by fluorescence assay relative to control
Rattus norvegicus = assay: Antihyperalgesic activity in Sprague-Dawley rat model of cisplatin-induced peripheral neuropathy assessed as increase in paw withdrawal latency at 40 mg/kg, po administered once daily via gavage for 7 days measured 4 hrs post last dose by plantar test; format: functional, organism-based

Row | SMILES | IC50 [2] [nM] | IC50 [3] [nM] | Drug metabolism [4] [nmol/min/mg] | Drug metabolism [5] [nmol/min/mg] | other results
1 | O=C(CCCCCCc1ccccc1)c1ncc(-c2ccccn2)o1 | – | – | – | – | Activity [1]: 30%
2 | Nc1ncc(C(=O)NC2CCC(=Cc3cccc(Oc4ccc(C(F)(F)F)cn4)c3)CC2)cc1Cl (racemic) | 4 | 52 | 0.06 | < 0.04 | –
3 | O=C(NC1CCC(=Cc2cccc(Oc3ccc(C(F)(F)F)cn3)c2)CC1)c1cccnc1 (stereo unspecified) | – | – | – | – | inhibition [6]: 60%
4 | Nc1ncc(C(=O)NC2CCC(=Cc3cccc(Oc4ccc(C(F)(F)F)cn4)c3)CC2)cn1 (racemic) | 2 | – | 0.03 | 0.02 | –
5 | Cc1cc(C(=O)N[C@H]2CC/C(=C/c3cccc(Oc4ccc(C(F)(F)F)cn4)c3)CC2)cnc1N (stereo unspecified) | 227 | 2300 | – | – | –
6 | Cc1cc(C(=O)NC2CCC(=Cc3cccc(Oc4ccc(C(F)(F)F)cn4)c3)CC2)cnc1N (racemic) | – | – | 0.09 | 0.04 | –
7 | Nc1ncc(C(=O)N[C@H]2CC/C(=C/c3cccc(Oc4ccc(C(F)(F)F)cn4)c3)CC2)cn1 (stereo unspecified) | 83 | 1500 | – | – | –
8 | Nc1ccc(C(=O)NC2CCC(=Cc3cccc(Oc4ccc(C(F)(F)F)cn4)c3)CC2)cn1 (racemic) | – | 31.3 | 0.07 | 0.05 | –
9 | O=C(N[C@H]1CC/C(=C/c2cccc(Oc3ccc(C(F)(F)F)cn3)c2)CC1)c1cccnc1 (stereo unspecified) | 414 | – | – | – | –
10 | O=C(NC1CCC(=Cc2cccc(Oc3ccc(C(F)(F)F)cn3)c2)CC1)c1ccncc1 (racemic) | – | – | – | – | inhibition [7]: 15%
11 | COc1cccc([C@@]2(O)CCCC[C@@H]2CN(C)C)c1 | – | – | – | – | Activity (Rattus norvegicus): Active
12 | O=C(NC1CCC(=Cc2cccc(Oc3ccc(C(F)(F)F)cn3)c2)CC1)c1cncnc1 (racemic) | – | – | < 0.04 | 0.07 | –
13 | O=C(NC1CCC(=Cc2cccc(Oc3ccc(C(F)(F)F)cn3)c2)CC1)c1cn[nH]c1 (racemic) | – | 64.6 | 0.04 | < 0.04 | –
